{"source": "patent US9237744B2", "about": "“Preservative solution for cells, tissues and organs containing rare sugar and preservative method thereof” (NATIONAL UNIVERSITY CORPORATION KAGAWA UNIVERSITY, priority 2004, dated 2016)", "key": {"ICAM-1 mRNA": {"tested_on": "ICAM-1 mRNA", "test": "Kidney preservation in UW solution at 4° C., ICAM-1 mRNA by northern blot", "set-up": "species or system rat", "conditions": "D-allose 5 mg/ml in UW solution, clearly observed after 12 hours and 24 hours (FIG. 10)", "protocol": "(§1) Object: male rats, 200 g to 280 g Preparations of experiment: A rat is fasted 12 hours before the experiment. After the rat is anesthetized by intraperitoneal administration of nenbutal, the stomach is shaved with an electric razor, cleaned with ether, and cut open. The abdominal aorta upper the renal artery is clamped. The UW solution is adapted to be perfused from the abdominal aorta under the renal artery. Grouping: Control group: UW solution only, D-allose group: D-allose is added to the UW solution at a concentration of 5 mg/ml. Experimental method: In the control group and the D-allose group, the kidney is withdrawn after perfusion of the UW solution in each group, put in the UW solution of each of the control group and the D-allose group, and preserved at 4° C. in pre or for 12, 24, 48 or 72 hours. Estimation: Expression of detrimental factor ICAM-1 and regeneration factor EGF in mRNA was examined by northern blot."}, "[1]": {"tested_on": "OVCAR-3, HaCaT and HDF cells", "test": "Cell survival rate with D-allose combined with DMSO at low concentration (Example 2)", "type": "cell-based, human", "conditions": "1 or 2% of DMSO with addition of D-allose (FIG. 9)", "protocol": "1. Cells used: Hela (human cervical cancer), OVCAR-3 (human ovarian cancer), HaCaT (human skin keratinocyte), HFB (human fibroblast) and NIH3T3 (mouse fibroblast). Saccharides D-allose and the like were added to culture medium, Cell Banker (commercially available preservative solution) and DMSO at concentrations of 0.2, 0.4, 0.6, 0.8 and 1M. Monosaccharides such as D-glucose, D-fructose, D-mannose and D-galactose which are present in nature in large quantities and D-allose, D-altrose, D-psicose, L-psicose, D-sorbose, L-sorbose, D-tagatose, L-tagatose and L-fructose as rare sugars were used. Further, trehalose as disaccharide was used. The cells frozen with D-allose were freeze-preserved at −80° C. and in liquid nitrogen for 24 hours, 1 week and 4 weeks. 1) Survival rate of cells: The cells were thawed, and the survival rate was estimated by a trypan blue dying method. 6) The effect of cell preservation under sub-optimal conditions by reducing the concentration of DMSO to 1, 2 or 3% was comparatively examined. OVCAR-3, HaCaT and HDF cells were used as cells. Regarding the preservation effect with DMSO, it was confirmed that the survival rate was approximately 70% or more with the use of 1 or 2% of DMSO by addition of D-allose (FIG. 9)."}, "EGF mRNA": {"tested_on": "EGF mRNA", "test": "Kidney preservation in UW solution at 4° C., EGF mRNA by northern blot", "set-up": "species or system rat", "conditions": "D-allose 5 mg/ml in UW solution, in 48 hours and 78 hours (FIG. 11)", "protocol": "as §1, with “and preserved at 4° C. in pre or for 12, 24, 48 or 72 hours.” left out"}, "HFB (human fibroblast)": {"tested_on": "HFB (human fibroblast)", "test": "Cell growth after thawing of freeze-preserved cells, MTT assay (Example 1)", "type": "cell-based", "conditions": "culture medium plus sugar, in comparison with other cases (FIG. 2)", "protocol": "(§2) 1. Cells used: Hela (human cervical cancer), OVCAR-3 (human ovarian cancer), HuH-7 (human liver cancer), HaCaT (human skin keratinocyte), HFB (human fibroblast) and NIH3T3 (mouse fibroblast). Saccharides D-allose and the like were added to culture medium, Cell Banker (commercially available preservative solution) and DMSO at concentrations of 25 mM and 50 mM. Monosaccharides such as D-glucose, D-fructose, D-mannose and D-galactose which are present in nature in large quantities and D-allose, D-psicose, D-altrose, allitol, D-talitol and L-sorbose as rare sugars were used. Further, trehalose as disaccharide was used. The cells were preserved for 24 hours by being frozen at −80° C. 2) Cell growth: One day later, the cells were thawed, and 0.25˜2×10^4 cells/well were spread on 96-well plate with 0.1 mL medium. After a prescribed period of time, the cell growth was measured by MTT assay."}, "[2]": {"tested_on": "NIH3T3 (mouse fibroblast)", "test": "Cell growth after thawing of freeze-preserved cells, MTT assay (Example 1)", "type": "cell-based", "conditions": "same experiment as with HFB", "protocol": "as §2"}, "[3]": {"conditions": "Murata et al., J. Bioengineering and Bioscience, 2003; cited from earlier work"}, "human sperms": {"tested_on": "human sperms", "test": "Movement rate of frozen and thawed sperms, visual observation with Makler Counting Chamber", "type": "cell-based", "conditions": "KS-II solution with D-allose alone versus glucose only, liquid nitrogen 1 month, P=0.0469 (FIG. 16)", "protocol": "Semens of ten healthy men who were 24 to 44 years old (mean: 29.9) with normal semens were used.\nThe semen was manually collected after abstinence for 3 to 5 days, liquefied at room temperature, and then washed and concentrated by a 80% Percoll liquid agitation density gradient method. The resulting sperm turbid solution (0.2 ml) and the freeze-preservative solution were mixed in equal amounts, and the mixture was charged into a freezing tube (serum tube, Sumitomo Bakelite), frozen by a liquid nitrogen vapor freezing method, and then preserved in a liquid nitrogen tank. The freeze-preservative solution (refer to FIG. 14) was used such that the mixing amounts of D-allose and D-glucose were changed (A group=1:0, B group=3:1, C group=1:1, D group=1:3, E group=0:1) without changing the number of moles of the sugar in a KS-II sperm preservative solution. One month later, the frozen sperms were thawed in warm water (30° C.) with shaking. Further, for removal of the freeze-preservative solution and reconcentration, the density gradient centrifugation method was conducted, and the resulting sperm floating solution was examined.\nAs the examination method, the sperm movement rate was measured by a visual observation method with Makler Counting Chamber and C-IMAGING SYSTEMS, and the survival rate was measured by 0.5% Eosin Y dying. […]"}}}
{"smiles": "O=C[C@H](O)[C@H](O)[C@H](O)[C@H](O)CO", "note": "[D-allose]", "values": [{"measurement": "expression of ICAM-1 mRNA during kidney preservation", "setting": "ICAM-1 mRNA", "value": "reduced"}, {"measurement": "survival rate", "setting": "[1]", "value": "≥ 70", "unit": "%"}, {"measurement": "expression of EGF mRNA during kidney preservation", "setting": "EGF mRNA", "value": "still maintained"}, {"measurement": "growth rate of cells after thawing", "setting": "HFB (human fibroblast)", "value": "growth rate was high"}, {"measurement": "growth rate of cells after thawing", "setting": "[2]", "value": "the same results were obtained"}, {"measurement": "antioxidation activity", "setting": "[3]", "value": "proved to have the antioxidation activity"}, {"measurement": "movement rate of thawed sperms", "setting": "human sperms", "value": "high in movement rate of thawed sperms in the eight of nine cases"}]}
